Assay results reported in patent US8048862B2, “Macrocyclic inhibitors of hepatitis C virus replication” (priority 2008, dated 2011).
Read-outs that look alike come from different tables or passages of the source.

Columns and labels:
NS3/NS4 complexes = NS3/NS4 complexes (Hepatitis C virus genotype 1a, UniProt P27958); test: NS3/NS4 inhibition activity (IC50); format: biochemical; details: Table 3, read-out: IC50
In short: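 Buffer: 50 mM Tris-HCl (pH 7.5), 10 mM DTT, 25 μM NS4A peptide, 0.6 mM LDAO and 15% glycerol. Assays were run at 23 °C with preformed NS3/NS4 complex, and the compound concentration giving inhibition was derived as an IC50.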

hepatitis C replicon = hepatitis C replicon EC50; format: cell-based; details: Hepatitis C virus
Excerpt: NS3-NS4 inhibition activity can be determined using known assay methods.

[1] = Table 3, hepatitis C replicon, read-out: EC50

Sequence of NS3/NS4 complexes (P27958 1027-1657): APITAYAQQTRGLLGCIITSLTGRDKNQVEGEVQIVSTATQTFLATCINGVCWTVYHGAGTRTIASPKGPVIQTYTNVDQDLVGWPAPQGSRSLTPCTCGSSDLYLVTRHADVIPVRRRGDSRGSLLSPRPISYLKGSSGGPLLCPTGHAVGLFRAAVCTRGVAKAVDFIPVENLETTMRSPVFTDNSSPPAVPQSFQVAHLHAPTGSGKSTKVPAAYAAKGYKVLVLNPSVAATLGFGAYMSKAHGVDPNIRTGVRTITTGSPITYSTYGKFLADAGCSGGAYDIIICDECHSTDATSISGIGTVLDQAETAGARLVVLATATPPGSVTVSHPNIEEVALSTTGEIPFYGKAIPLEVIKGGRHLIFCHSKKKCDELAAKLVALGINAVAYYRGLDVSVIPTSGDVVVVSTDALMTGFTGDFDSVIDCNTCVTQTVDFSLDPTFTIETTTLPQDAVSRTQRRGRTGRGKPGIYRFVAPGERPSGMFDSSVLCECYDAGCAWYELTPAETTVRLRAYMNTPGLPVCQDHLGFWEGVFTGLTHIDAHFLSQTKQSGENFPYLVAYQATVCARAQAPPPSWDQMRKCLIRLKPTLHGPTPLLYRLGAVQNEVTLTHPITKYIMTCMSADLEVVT
Sequence of NS3/NS4 complexes (P27958 1658-1711): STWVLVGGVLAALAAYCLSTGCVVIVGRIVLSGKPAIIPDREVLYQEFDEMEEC

Row | SMILES | IC50 (NS3/NS4 complexes) | EC50 (hepatitis C replicon; [1]) | EC50 (hepatitis C replicon)
1 | CC(C)(C)OC(=O)N[C@H]1CCCCC/C=C\[C@@H]2C[C@@]2(C(=O)NS(=O)(=O)c2ccccc2OCC(N)=O)NC(=O)[C@@H]2C[C@@H](OC(=O)N3Cc4cccc(F)c4C3)CN2C1=O [Compound 1083] | < 10 nM | > 100 nM | 
2 | CNC(=O)COc1ccccc1S(=O)(=O)NC(=O)[C@@]12C[C@H]1/C=C\CCCCC[C@H](NC(=O)OC(C)(C)C)C(=O)N1C[C@H](OC(=O)N3Cc4cccc(F)c4C3)C[C@H]1C(=O)N2 [Compound 1084] | < 10 nM | > 100 nM | 
3 | O=C(N[C@H]1CCCCC/C=C\[C@@H]2C[C@@]2(C(=O)NS(=O)(=O)C2CC2)NC(=O)[C@@H]2C[C@@H](OC(=O)N3Cc4cccc(F)c4C3)CN2C1=O)O[C@@H]1C[C@@H]2C[C@@H]2C1 [Compound 1085] | < 10 nM | < 10 nM | 
4 | CC(C)(C)OC(=O)N[C@H]1CCCCC/C=C\[C@@H]2C[C@@]2(C(=O)NS(=O)(=O)Cc2ccccc2)NC(=O)[C@@H]2C[C@@H](OC(=O)N3Cc4cccc(F)c4C3)CN2C1=O [Compound 1086] | < 10 nM | > 100 nM | 
5 | CO[C@@H]1C[C@H]2C(=O)N[C@]3(C(=O)NS(=O)(=O)C4(C)CC4)C[C@H]3/C=C\CCCCC[C@H](NC(=O)OC(C)(C)C)C(=O)N2C1 [Compound 1091] | > 100 nM | > 100 nM | 
6 | CC(C)(C)OC(=O)N[C@H]1CCCCC/C=C\[C@@H]2C[C@@]2(C(=O)NS(=O)(=O)c2ccccc2OCC(N)=O)NC(=O)[C@@H]2C[C@@H](O)CN2C1=O [Compound 1093] | > 100 nM | > 100 nM | 
7 | CNC(=O)COc1ccccc1S(=O)(=O)NC(=O)[C@@]12C[C@H]1/C=C\CCCCC[C@H](NC(=O)OC(C)(C)C)C(=O)N1C[C@H](O)C[C@H]1C(=O)N2 [Compound 1094] | > 100 nM | > 100 nM | 
8 | CO[C@@H]1C[C@H]2C(=O)N[C@]3(C(=O)NS(=O)(=O)CC(=O)Nc4ccccc4)C[C@H]3/C=C\CCCCC[C@H](NC(=O)OC(C)(C)C)C(=O)N2C1 [Compound 1099] | < 10 nM |  | < 10 nM
9 | CC1(S(=O)(=O)NC(=O)[C@@]23C[C@H]2/C=C\CCCCC[C@H](Nc2cc(F)cc(C(F)(F)F)c2)C(=O)N2C[C@H](OC(=O)N4Cc5cccc(F)c5C4)C[C@H]2C(=O)N3)CC1 [Compound 1100] | < 10 nM | < 10 nM | 
10 | CC1(S(=O)(=O)NC(=O)[C@@]23C[C@H]2/C=C\CCCCC[C@H](Nc2cccc(C(N)=O)c2)C(=O)N2C[C@H](OC(=O)N4Cc5cccc(F)c5C4)C[C@H]2C(=O)N3)CC1 [Compound 1101] | < 10 nM | 10 to 100 nM | 
11 | CC1(S(=O)(=O)NC(=O)[C@@]23C[C@H]2/C=C\CCCCC[C@H](Nc2ccccc2)C(=O)N2C[C@H](OC(=O)N4Cc5cccc(F)c5C4)C[C@H]2C(=O)N3)CC1 [Compound 1102] | < 10 nM | < 10 nM | 
12 | Cc1cccc(N[C@H]2CCCCC/C=C\[C@@H]3C[C@@]3(C(=O)NS(=O)(=O)C3(C)CC3)NC(=O)[C@@H]3C[C@@H](OC(=O)N4Cc5cccc(F)c5C4)CN3C2=O)c1 [Compound 1103] | < 10 nM | < 10 nM | 
13 | COc1cccc(N[C@H]2CCCCC/C=C\[C@@H]3C[C@@]3(C(=O)NS(=O)(=O)C3(C)CC3)NC(=O)[C@@H]3C[C@@H](OC(=O)N4Cc5cccc(F)c5C4)CN3C2=O)c1 [Compound 1104] | < 10 nM | < 10 nM | 
14 | Cc1cc(F)cc(N[C@H]2CCCCC/C=C\[C@@H]3C[C@@]3(C(=O)NS(=O)(=O)C3(C)CC3)NC(=O)[C@@H]3C[C@@H](OC(=O)N4Cc5cccc(F)c5C4)CN3C2=O)c1 [Compound 1105] | < 10 nM | < 10 nM | 
15 | CN(C)C(=O)c1cccc(N[C@H]2CCCCC/C=C\[C@@H]3C[C@@]3(C(=O)NS(=O)(=O)C3(C)CC3)NC(=O)[C@@H]3C[C@@H](OC(=O)N4Cc5cccc(F)c5C4)CN3C2=O)c1 [Compound 1106] | < 10 nM | 10 to 100 nM | 
16 | CC1(S(=O)(=O)NC(=O)[C@@]23C[C@H]2/C=C\CCCCC[C@H](Nc2ccc(F)c(F)c2)C(=O)N2C[C@H](OC(=O)N4Cc5cccc(F)c5C4)C[C@H]2C(=O)N3)CC1 [Compound 1107] | < 10 nM | 10 to 100 nM | 
17 | CC1(S(=O)(=O)NC(=O)[C@@]23C[C@H]2/C=C\CCCCC[C@H](Nc2cc(F)c(F)c(F)c2)C(=O)N2C[C@H](OC(=O)N4Cc5cccc(F)c5C4)C[C@H]2C(=O)N3)CC1 [Compound 1108] | < 10 nM | 10 to 100 nM | 
18 | CC1(S(=O)(=O)NC(=O)[C@@]23C[C@H]2/C=C\CCCCC[C@H](Nc2ccc(C#N)cc2)C(=O)N2C[C@H](OC(=O)N4Cc5cccc(F)c5C4)C[C@H]2C(=O)N3)CC1 [Compound 1109] | < 10 nM | 10 to 100 nM | 
19 | CC(=O)Nc1cccc(N[C@H]2CCCCC/C=C\[C@@H]3C[C@@]3(C(=O)NS(=O)(=O)C3(C)CC3)NC(=O)[C@@H]3C[C@@H](OC(=O)N4Cc5cccc(F)c5C4)CN3C2=O)c1 [Compound 1110] | < 10 nM | 10 to 100 nM | 
20 | CC1(S(=O)(=O)NC(=O)[C@@]23C[C@H]2/C=C\CCCCC[C@H](Nc2ccc(F)cc2)C(=O)N2C[C@H](OC(=O)N4Cc5cccc(F)c5C4)C[C@H]2C(=O)N3)CC1 [Compound 1111] | < 10 nM | 10 to 100 nM | 

Row | SMILES | IC50 (NS3/NS4 complexes) | EC50 (hepatitis C replicon; [1]) | EC50 (hepatitis C replicon)
21 | CNC(=O)c1cccc(N[C@H]2CCCCC/C=C\[C@@H]3C[C@@]3(C(=O)NS(=O)(=O)C3(C)CC3)NC(=O)[C@@H]3C[C@@H](OC(=O)N4Cc5cccc(F)c5C4)CN3C2=O)c1 [Compound 1112] | < 10 nM | > 100 nM | 
22 | CC1(S(=O)(=O)NC(=O)[C@@]23C[C@H]2/C=C\CCCCC[C@H](Nc2cccc(C#N)c2)C(=O)N2C[C@H](OC(=O)N4Cc5cccc(F)c5C4)C[C@H]2C(=O)N3)CC1 [Compound 1113] | < 10 nM | 10 to 100 nM | 
23 | Cc1ccccc1N[C@H]1CCCCC/C=C\[C@@H]2C[C@@]2(C(=O)NS(=O)(=O)C2(C)CC2)NC(=O)[C@@H]2C[C@@H](OC(=O)N3Cc4cccc(F)c4C3)CN2C1=O [Compound 1114] | < 10 nM | 10 to 100 nM | 
24 | CC1(S(=O)(=O)NC(=O)[C@@]23C[C@H]2/C=C\CCCCC[C@H](Nc2cccc(OC(F)(F)F)c2)C(=O)N2C[C@H](OC(=O)N4Cc5cccc(F)c5C4)C[C@H]2C(=O)N3)CC1 [Compound 1115] | < 10 nM | < 10 nM | 
25 | CC1(S(=O)(=O)NC(=O)[C@@]23C[C@H]2/C=C\CCCCC[C@H](Nc2cccc(C(F)(F)F)c2)C(=O)N2C[C@H](OC(=O)N4Cc5cccc(F)c5C4)C[C@H]2C(=O)N3)CC1 [Compound 1116] | < 10 nM | < 10 nM | 
26 | CC1(S(=O)(=O)NC(=O)[C@@]23C[C@H]2/C=C\CCCCC[C@H](Nc2cccc(F)c2)C(=O)N2C[C@H](OC(=O)N4Cc5cccc(F)c5C4)C[C@H]2C(=O)N3)CC1 [Compound 1117] | < 10 nM | 10 to 100 nM | 
27 | CC1(S(=O)(=O)NC(=O)[C@@]23C[C@H]2/C=C\CCCCC[C@H](Nc2ccc(C(F)(F)F)cc2)C(=O)N2C[C@H](OC(=O)N4Cc5cccc(F)c5C4)C[C@H]2C(=O)N3)CC1 [Compound 1118] | < 10 nM | > 100 nM | 
28 | CC1(S(=O)(=O)NC(=O)[C@@]23C[C@H]2/C=C\CCCCC[C@H](Nc2ccc(OC(F)(F)F)cc2)C(=O)N2C[C@H](OC(=O)N4Cc5cccc(F)c5C4)C[C@H]2C(=O)N3)CC1 [Compound 1119] | < 10 nM | 10 to 100 nM | 
29 | CC1(S(=O)(=O)NC(=O)[C@@]23C[C@H]2/C=C\CCCCC[C@H](Nc2ccc(F)c(C(F)(F)F)c2)C(=O)N2C[C@H](OC(=O)N4Cc5cccc(F)c5C4)C[C@H]2C(=O)N3)CC1 [Compound 1120] | < 10 nM | < 10 nM | 
30 | CC(=O)Nc1ccc(N[C@H]2CCCCC/C=C\[C@@H]3C[C@@]3(C(=O)NS(=O)(=O)C3(C)CC3)NC(=O)[C@@H]3C[C@@H](OC(=O)N4Cc5cccc(F)c5C4)CN3C2=O)cc1 [Compound 1121] | < 10 nM | 10 to 100 nM | 
31 | CC1(S(=O)(=O)NC(=O)[C@@]23C[C@H]2/C=C\CCCCC[C@H](Nc2cccc(NS(C)(=O)=O)c2)C(=O)N2C[C@H](OC(=O)N4Cc5cccc(F)c5C4)C[C@H]2C(=O)N3)CC1 [Compound 1122] | < 10 nM | 10 to 100 nM | 
32 | CC1(S(=O)(=O)NC(=O)[C@@]23C[C@H]2/C=C\CCCCC[C@H](Nc2ccc(C(F)(F)F)c(F)c2)C(=O)N2C[C@H](OC(=O)N4Cc5cccc(F)c5C4)C[C@H]2C(=O)N3)CC1 [Compound 1123] | < 10 nM | > 100 nM | 
33 | CC1(S(=O)(=O)NC(=O)[C@@]23C[C@H]2/C=C\CCCCC[C@H](Nc2ccccc2F)C(=O)N2C[C@H](OC(=O)N4Cc5cccc(F)c5C4)C[C@H]2C(=O)N3)CC1 [Compound 1124] | < 10 nM | 10 to 100 nM | 
34 | CC(C)(C)c1cccc(N[C@H]2CCCCC/C=C\[C@@H]3C[C@@]3(C(=O)NS(=O)(=O)C3(C)CC3)NC(=O)[C@@H]3C[C@@H](OC(=O)N4Cc5cccc(F)c5C4)CN3C2=O)c1 [Compound 1126] | < 10 nM | < 10 nM | 
35 | CC1(S(=O)(=O)NC(=O)[C@@]23C[C@H]2/C=C\CCCCC[C@H](Nc2nc4ccccc4o2)C(=O)N2C[C@H](OC(=O)N4Cc5cccc(F)c5C4)C[C@H]2C(=O)N3)CC1 [Compound 1127] | < 10 nM | 10 to 100 nM | 
36 | O=C1N[C@]2(C(=O)NS(=O)(=O)C3CC3)C[C@H]2/C=C\CCCCC[C@H](Nc2cc(F)cc(C(F)(F)F)c2)C(=O)N2C[C@H](OC(=O)N3Cc4cccc(F)c4C3)C[C@@H]12 [Compound 1128] | < 10 nM | < 10 nM | 
37 | CC(C)Cn1c(O[C@@H]2C[C@H]3C(=O)N[C@]4(C(=O)NS(=O)(=O)N(C)C)C[C@H]4/C=C\CCCCC[C@H](NC(=O)OC(C)(C)C)C(=O)N3C2)nc2ccccc21 [Compound 1129] | < 10 nM | < 10 nM | 
38 | CN(C)S(=O)(=O)NC(=O)[C@@]12C[C@H]1/C=C\CCCCC[C@H](NC(=O)OC(C)(C)C)C(=O)N1C[C@H](Oc3nc4ccccc4n3C)C[C@H]1C(=O)N2 [Compound 1130] | < 10 nM | < 10 nM | 
39 | CC(C)n1c(O[C@@H]2C[C@H]3C(=O)N[C@]4(C(=O)NS(=O)(=O)N(C)C)C[C@H]4/C=C\CCCCC[C@H](NC(=O)OC(C)(C)C)C(=O)N3C2)nc2ccccc21 [Compound 1131] | < 10 nM | < 10 nM | 
